# According to ChEMBL document CHEMBL3132769, “Fragment growing to retain or alter the selectivity of anchored kinase hinge-binding fragments” (Medchemcomm, 2014):
# Key:
# [1] = molecular target: Protein kinase C alpha type (Homo sapiens) (UniProt P17252); assay: Inhibition of human truncated PKC alpha expressed in baculovirus assessed as substrate phosphorylation using fluorescence-labelled peptides as substrate at 8 uM after 90 mins by microfluidic peptide phosphorylation assay
# [2] = tested on: Tyrosine-protein kinase ABL1 (Homo sapiens), P00519 [T315I]; assay: Inhibition of human truncated ABL T315I mutant expressed in baculovirus assessed as substrate phosphorylation using fluorescence-labelled peptides as substrate at 8 uM after 90 mins by microfluidic peptide phosphorylation assay
# [3] = molecular target: Platelet-derived growth factor receptor alpha (Homo sapiens) (UniProt P16234); assay: Inhibition of human PDGFR alpha catalytic domain expressed in baculovirus assessed as substrate phosphorylation using fluorescence-labelled peptides as substrate at 0.06 uM after 90 mins by microfluidic peptide phosphorylation assay
# [4] = molecular target: Calcium/calmodulin-dependent protein kinase type II subunit beta (Homo sapiens) (UniProt Q13554); assay: Inhibition of human CAMK2 beta catalytic domain expressed in baculovirus assessed as substrate phosphorylation using fluorescence-labelled peptides as substrate at 0.06 uM after 90 mins by microfluidic peptide phosphorylation assay
# Sequence of Calcium/calmodulin-dependent protein kinase type II subunit beta (Homo sapiens) (Q13554 whole entry, the tested form may be a part): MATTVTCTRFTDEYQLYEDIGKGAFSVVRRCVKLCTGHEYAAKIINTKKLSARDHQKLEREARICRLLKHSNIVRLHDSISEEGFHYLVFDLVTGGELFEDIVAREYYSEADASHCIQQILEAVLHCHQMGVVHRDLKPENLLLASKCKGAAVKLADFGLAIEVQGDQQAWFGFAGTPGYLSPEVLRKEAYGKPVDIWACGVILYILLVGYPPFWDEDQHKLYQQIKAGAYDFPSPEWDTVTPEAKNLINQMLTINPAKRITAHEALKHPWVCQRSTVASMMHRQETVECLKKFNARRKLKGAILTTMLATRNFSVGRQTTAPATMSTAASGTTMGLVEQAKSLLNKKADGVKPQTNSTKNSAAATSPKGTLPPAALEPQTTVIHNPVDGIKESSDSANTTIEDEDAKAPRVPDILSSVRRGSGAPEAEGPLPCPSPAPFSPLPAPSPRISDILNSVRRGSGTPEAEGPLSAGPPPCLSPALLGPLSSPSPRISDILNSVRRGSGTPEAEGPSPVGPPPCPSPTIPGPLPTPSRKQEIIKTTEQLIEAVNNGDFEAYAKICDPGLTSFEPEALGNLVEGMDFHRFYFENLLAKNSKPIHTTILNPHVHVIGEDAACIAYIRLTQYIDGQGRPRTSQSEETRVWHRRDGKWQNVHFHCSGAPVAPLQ
# [5] = molecular target: MAP/microtubule affinity-regulating kinase 3 (Homo sapiens) (UniProt P27448); assay: Inhibition of human full length c-TAK1 expressed in Escherichia coli cell assessed as substrate phosphorylation using fluorescence-labelled peptides as substrate at 0.2 uM after 90 mins by microfluidic peptide phosphorylation assay
# [6] = molecular target: T1, Mitogen-activated protein kinase 12 (Homo sapiens) (UniProt P53778); assay: Inhibition of human full length p38 gamma expressed in Escherichia coli cell assessed as substrate phosphorylation using fluorescence-labelled peptides as substrate at 0.2 uM after 90 mins by microfluidic peptide phosphorylation assay
# T1 sequence (whole entry): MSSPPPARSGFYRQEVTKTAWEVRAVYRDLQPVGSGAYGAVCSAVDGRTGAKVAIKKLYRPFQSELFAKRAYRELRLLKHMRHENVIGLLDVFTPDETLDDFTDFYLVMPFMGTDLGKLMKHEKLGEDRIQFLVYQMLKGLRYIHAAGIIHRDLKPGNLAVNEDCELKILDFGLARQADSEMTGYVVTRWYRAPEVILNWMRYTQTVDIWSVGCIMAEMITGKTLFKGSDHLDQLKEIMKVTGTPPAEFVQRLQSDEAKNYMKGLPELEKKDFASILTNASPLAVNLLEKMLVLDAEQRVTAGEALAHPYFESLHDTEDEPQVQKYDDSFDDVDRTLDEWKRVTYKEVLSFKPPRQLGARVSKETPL
# [7] = molecular target: Tyrosine-protein kinase ABL2 (Homo sapiens) (UniProt P42684); assay: Inhibition of human truncated Arg expressed in baculovirus assessed as substrate phosphorylation using fluorescence-labelled peptides as substrate at 2 uM after 90 mins by microfluidic peptide phosphorylation assay
# Sequence of Tyrosine-protein kinase ABL2 (Homo sapiens) (P42684 whole entry, the tested form may be a part): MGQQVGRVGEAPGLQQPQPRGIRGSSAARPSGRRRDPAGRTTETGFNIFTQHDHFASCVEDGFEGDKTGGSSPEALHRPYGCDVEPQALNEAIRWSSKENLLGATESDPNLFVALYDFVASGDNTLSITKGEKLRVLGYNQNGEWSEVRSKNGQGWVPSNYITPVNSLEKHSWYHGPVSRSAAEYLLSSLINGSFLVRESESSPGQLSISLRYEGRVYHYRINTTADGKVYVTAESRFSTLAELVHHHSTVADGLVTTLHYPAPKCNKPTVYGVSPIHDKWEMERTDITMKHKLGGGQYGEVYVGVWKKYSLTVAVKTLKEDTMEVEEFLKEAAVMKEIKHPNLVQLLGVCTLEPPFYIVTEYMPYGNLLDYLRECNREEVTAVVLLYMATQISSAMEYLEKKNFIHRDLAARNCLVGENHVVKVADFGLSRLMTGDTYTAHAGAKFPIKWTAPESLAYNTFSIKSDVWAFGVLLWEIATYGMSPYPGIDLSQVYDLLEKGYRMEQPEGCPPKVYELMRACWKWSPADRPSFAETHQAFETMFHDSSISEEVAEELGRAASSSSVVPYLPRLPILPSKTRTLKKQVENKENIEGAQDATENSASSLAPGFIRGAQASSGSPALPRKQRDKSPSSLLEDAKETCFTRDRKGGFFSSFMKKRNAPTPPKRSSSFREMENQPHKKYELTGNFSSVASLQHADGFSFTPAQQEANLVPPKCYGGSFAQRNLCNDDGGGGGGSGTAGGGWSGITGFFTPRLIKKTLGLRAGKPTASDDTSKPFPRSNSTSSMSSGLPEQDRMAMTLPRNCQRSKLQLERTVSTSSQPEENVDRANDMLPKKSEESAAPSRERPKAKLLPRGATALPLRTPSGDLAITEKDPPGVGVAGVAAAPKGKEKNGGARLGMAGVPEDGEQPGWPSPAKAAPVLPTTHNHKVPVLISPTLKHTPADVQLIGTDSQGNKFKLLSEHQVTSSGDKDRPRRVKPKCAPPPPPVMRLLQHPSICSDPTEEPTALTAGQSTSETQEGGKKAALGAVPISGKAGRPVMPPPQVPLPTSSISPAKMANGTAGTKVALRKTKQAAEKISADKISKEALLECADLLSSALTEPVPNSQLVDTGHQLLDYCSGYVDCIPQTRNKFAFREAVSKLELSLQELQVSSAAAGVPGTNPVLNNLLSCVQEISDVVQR
# [8] = molecular target: Tyrosine-protein kinase Fer (Homo sapiens) (UniProt P16591); assay: Inhibition of human FER catalytic domain expressed in baculovirus assessed as substrate phosphorylation using fluorescence-labelled peptides as substrate at […] after 90 mins by microfluidic peptide phosphorylation assay
# [9] = molecular target: Tyrosine-protein kinase Lck (Homo sapiens) (UniProt P06239); assay: Inhibition of human full length LCK expressed in baculovirus assessed as substrate phosphorylation using fluorescence-labelled peptides as substrate at 9 uM after 90 mins by microfluidic peptide phosphorylation assay
# Sequence of Tyrosine-protein kinase Lck (Homo sapiens) (P06239 2-509 limits assumed): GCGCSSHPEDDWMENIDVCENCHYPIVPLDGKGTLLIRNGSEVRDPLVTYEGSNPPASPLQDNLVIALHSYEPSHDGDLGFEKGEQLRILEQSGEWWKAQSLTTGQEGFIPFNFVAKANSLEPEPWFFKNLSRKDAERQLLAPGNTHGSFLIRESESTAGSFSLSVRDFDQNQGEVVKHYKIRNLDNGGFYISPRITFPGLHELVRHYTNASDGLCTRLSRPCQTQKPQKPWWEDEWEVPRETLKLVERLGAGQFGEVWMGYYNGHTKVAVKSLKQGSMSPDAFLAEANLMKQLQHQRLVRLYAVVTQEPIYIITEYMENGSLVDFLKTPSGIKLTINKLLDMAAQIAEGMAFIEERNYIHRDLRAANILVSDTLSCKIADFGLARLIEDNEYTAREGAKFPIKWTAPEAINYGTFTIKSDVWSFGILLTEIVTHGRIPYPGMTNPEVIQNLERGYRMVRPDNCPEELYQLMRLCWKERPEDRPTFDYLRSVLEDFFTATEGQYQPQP
# [10] = molecular target: Mitogen-activated protein kinase 3 (Homo sapiens) (UniProt P27361); assay: Inhibition of human full length ERK1 expressed in Escherichia coli cell assessed as substrate phosphorylation using fluorescence-labelled peptides as substrate at 95 uM after 90 mins by microfluidic peptide phosphorylation assay
# [11] = molecular target: T2, Aurora kinase C (Homo sapiens) (UniProt Q9UQB9); assay: Inhibition of human full length AurC expressed in baculovirus assessed as substrate phosphorylation using fluorescence-labelled peptides as substrate at 95 uM after 90 mins by microfluidic peptide phosphorylation assay
# T2 sequence (whole entry): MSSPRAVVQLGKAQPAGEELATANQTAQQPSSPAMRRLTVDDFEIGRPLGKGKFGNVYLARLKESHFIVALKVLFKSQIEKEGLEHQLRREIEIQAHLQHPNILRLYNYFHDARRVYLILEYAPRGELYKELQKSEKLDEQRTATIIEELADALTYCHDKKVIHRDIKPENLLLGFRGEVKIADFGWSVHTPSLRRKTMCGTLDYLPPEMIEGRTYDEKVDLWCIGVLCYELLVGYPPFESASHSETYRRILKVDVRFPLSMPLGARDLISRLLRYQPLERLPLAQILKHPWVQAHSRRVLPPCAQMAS
# [12] = molecular target: Serine/threonine-protein kinase Chk2 (Homo sapiens) (UniProt O96017); assay: Inhibition of human full length CHK2 expressed in baculovirus assessed as substrate phosphorylation using fluorescence-labelled peptides as substrate at 95 uM after 90 mins by microfluidic peptide phosphorylation assay
# Sequence of Serine/threonine-protein kinase Chk2 (Homo sapiens) (O96017 whole entry, the tested form may be a part): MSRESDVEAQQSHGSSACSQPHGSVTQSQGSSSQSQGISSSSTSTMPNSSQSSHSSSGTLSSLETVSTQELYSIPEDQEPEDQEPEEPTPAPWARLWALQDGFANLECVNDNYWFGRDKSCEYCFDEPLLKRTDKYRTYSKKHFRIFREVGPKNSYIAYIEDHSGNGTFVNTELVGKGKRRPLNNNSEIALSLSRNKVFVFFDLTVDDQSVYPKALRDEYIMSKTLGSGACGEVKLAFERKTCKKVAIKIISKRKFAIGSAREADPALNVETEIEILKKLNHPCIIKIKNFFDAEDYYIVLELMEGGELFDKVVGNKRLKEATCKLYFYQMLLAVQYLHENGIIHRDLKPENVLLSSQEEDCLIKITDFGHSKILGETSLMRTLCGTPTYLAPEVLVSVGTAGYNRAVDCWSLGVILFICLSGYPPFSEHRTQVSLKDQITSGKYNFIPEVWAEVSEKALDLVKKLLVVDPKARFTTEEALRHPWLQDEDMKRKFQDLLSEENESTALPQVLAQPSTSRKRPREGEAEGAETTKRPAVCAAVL
# [13] = tested on: Tyrosine-protein kinase ABL1 (Homo sapiens), P00519 [Q252H]; assay: Inhibition of human truncated ABL Q252H mutant expressed in baculovirus assessed as substrate phosphorylation using fluorescence-labelled peptides as substrate at 1000 uM after 90 mins by microfluidic peptide phosphorylation assay
# [14] = molecular target: Vascular endothelial growth factor receptor 2 (Homo sapiens) (UniProt P35968); assay: Inhibition of human KDR cytoplasmic domain expressed in baculovirus assessed as substrate phosphorylation using fluorescence-labelled peptides as substrate at 1000 uM after 90 mins by microfluidic peptide phosphorylation assay
# Sequence of Vascular endothelial growth factor receptor 2 (Homo sapiens) (P35968 whole entry, the tested form may be a part): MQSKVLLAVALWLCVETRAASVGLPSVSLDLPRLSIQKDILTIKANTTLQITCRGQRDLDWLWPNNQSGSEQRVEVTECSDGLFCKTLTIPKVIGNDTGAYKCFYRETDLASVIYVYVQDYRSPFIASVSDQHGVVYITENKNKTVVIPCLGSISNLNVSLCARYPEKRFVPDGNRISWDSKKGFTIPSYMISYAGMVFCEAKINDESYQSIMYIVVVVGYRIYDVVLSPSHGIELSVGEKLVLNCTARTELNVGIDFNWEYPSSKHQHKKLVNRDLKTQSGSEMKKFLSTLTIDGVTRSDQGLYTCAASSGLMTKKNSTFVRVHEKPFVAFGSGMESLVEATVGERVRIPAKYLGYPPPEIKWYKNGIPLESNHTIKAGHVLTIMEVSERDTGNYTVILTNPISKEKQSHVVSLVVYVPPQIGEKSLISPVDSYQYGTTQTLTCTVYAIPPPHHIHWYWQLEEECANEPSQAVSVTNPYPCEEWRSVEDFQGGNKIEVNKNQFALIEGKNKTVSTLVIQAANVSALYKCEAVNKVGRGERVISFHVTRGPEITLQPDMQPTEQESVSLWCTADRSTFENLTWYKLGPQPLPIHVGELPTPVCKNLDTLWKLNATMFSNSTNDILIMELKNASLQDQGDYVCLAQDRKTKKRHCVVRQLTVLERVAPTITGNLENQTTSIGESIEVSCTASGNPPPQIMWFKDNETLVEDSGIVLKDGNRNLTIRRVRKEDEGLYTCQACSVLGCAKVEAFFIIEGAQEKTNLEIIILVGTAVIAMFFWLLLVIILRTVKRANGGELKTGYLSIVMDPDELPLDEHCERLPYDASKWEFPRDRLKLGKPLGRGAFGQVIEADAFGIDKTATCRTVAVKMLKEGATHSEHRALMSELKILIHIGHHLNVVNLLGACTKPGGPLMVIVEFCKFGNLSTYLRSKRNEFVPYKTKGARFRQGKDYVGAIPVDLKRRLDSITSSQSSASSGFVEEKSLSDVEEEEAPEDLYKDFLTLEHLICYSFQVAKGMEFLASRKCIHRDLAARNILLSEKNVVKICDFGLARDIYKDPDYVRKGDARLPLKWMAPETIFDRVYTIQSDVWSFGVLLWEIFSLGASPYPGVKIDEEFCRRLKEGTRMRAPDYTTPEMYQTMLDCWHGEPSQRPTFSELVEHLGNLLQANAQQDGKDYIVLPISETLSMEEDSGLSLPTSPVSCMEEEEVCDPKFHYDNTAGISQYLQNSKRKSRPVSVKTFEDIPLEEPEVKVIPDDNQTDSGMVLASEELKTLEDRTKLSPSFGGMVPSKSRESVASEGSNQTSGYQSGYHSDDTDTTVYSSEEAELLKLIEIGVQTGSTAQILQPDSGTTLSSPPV
# [15] = molecular target: Serine/threonine-protein kinase MARK1 (Homo sapiens) (UniProt Q9P0L2); assay: Inhibition of human full length MARK1 expressed in baculovirus assessed as substrate phosphorylation using fluorescence-labelled peptides as substrate at 420 uM after 90 mins by microfluidic peptide phosphorylation assay
# Sequence of Serine/threonine-protein kinase MARK1 (Homo sapiens) (Q9P0L2 whole entry, looked up, the tested form may be a part): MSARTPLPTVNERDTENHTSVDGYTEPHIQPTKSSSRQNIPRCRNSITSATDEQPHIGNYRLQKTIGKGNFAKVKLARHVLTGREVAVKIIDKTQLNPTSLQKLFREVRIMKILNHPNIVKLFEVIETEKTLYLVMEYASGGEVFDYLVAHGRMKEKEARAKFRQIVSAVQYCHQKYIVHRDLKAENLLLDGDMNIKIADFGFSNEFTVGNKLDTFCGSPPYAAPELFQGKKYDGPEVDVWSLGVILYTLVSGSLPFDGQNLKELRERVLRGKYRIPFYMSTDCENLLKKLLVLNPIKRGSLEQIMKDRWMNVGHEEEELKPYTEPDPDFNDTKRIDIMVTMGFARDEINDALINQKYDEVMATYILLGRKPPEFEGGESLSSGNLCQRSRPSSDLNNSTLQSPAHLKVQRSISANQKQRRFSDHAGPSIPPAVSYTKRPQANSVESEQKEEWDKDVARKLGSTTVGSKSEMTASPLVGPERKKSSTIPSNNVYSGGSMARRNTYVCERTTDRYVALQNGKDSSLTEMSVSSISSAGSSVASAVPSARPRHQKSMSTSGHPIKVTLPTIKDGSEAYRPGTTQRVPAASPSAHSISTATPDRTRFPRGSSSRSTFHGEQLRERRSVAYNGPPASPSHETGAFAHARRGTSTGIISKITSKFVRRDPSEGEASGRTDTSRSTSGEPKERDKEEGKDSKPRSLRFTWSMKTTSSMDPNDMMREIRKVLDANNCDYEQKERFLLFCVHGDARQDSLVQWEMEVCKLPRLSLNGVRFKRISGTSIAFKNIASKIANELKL
# [16] = molecular target: Fibroblast growth factor receptor 1 (Homo sapiens) (UniProt P11362); assay: Inhibition of human FGFR1 catalytic domain expressed in baculovirus assessed as substrate phosphorylation using fluorescence-labelled peptides as substrate at 420 uM after 90 mins by microfluidic peptide phosphorylation assay
smiles,measurement,setting,value
NCC1CCN(c2ncnc3[nH]ccc23)CC1,inhibition,[1],56.5%
same,inhibition,[2],53%
NC1(Cc2ccc(Cl)cc2)CCN(c2ncnc3[nH]ccc23)CC1,inhibition,[3],0%
same,inhibition,[4],0%
Clc1ccc(C2(c3ccc(-c4ncnc5[nH]cnc45)cc3)CCNCC2)cc1,inhibition,[5],27.5%
same,inhibition,[6],5%
NC1CCN(c2ncnc3[nH]ccc23)CC1,inhibition,[7],7.5%
COC(=O)c1cnc(Nc2cnc(C#N)cn2)cc1NCC1CCNCC1,inhibition,[8],1%
NCC1CN(c2ncnc3[nH]c4cnccc4c23)CCO1 (stereo unspecified),inhibition,[9],39%
NCCc1ccc(-c2ncnc3[nH]cnc23)cc1,inhibition,[10],59%
same,inhibition,[11],87.5%
same,inhibition,[12],74%
c1cnc2[nH]ccc2c1,inhibition,[13],29%
same,inhibition,[14],89.5%
c1nc(N2CCOCC2)c2nc[nH]c2n1,inhibition,[15],4.5%
same,inhibition,[16],97%
